Measured values: ChEMBL document CHEMBL3763073 (Eur J Med Chem, 2016)

Assays:
Oxytocin receptor [1] = target: T1, Oxytocin receptor (Homo sapiens, UniProt P30559); assay: Agonist activity at human oxytocin receptor expressed in HEK293 cells assessed as increase in IP1 accumulation preincubated for 1 hr followed by addition of Ab-Cryptate and IP1-d2 by HTRF assay; format: functional, cell-based
T1 sequence (P30559 whole entry): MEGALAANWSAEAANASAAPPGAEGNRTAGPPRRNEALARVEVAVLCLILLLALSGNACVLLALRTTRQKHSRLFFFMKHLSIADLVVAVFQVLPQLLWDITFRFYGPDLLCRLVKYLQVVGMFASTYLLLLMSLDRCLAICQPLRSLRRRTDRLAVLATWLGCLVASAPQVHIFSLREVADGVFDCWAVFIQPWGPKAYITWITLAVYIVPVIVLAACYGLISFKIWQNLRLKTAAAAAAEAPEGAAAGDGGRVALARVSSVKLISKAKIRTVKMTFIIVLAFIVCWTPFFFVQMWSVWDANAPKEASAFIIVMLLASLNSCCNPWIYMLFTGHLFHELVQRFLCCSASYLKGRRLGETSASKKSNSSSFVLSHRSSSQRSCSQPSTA

Vasopressin V1a receptor [2] = target: T2, Vasopressin V1a receptor (Homo sapiens, UniProt P37288); assay: Displacement of [3H]-vasopressin from human vasopressin 1a receptor expressed in HEK293 cells after 90 mins by microbeta 2 microplate-reader method; format: cell-based
T2 sequence (P37288 whole entry): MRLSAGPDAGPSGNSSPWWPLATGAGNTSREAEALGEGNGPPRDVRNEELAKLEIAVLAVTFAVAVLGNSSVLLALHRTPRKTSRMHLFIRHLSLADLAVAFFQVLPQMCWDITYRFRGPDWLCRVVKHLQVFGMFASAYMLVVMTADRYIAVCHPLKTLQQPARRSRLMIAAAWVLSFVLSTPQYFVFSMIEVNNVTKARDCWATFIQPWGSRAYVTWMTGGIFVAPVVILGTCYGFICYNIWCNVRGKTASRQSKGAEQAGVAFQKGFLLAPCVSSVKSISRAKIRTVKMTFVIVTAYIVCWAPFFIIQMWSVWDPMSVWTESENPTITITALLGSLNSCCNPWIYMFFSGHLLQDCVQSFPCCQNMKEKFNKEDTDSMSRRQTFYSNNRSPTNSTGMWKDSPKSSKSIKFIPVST

Oxytocin receptor [3] = target: T1, Oxytocin receptor; assay: Antagonist activity at human oxytocin receptor expressed in HEK293 cells assessed as inhibition of oxytocin induced IP1 accumulation pretreated for 30 mins measured 1 hr post Ab-Cryptate and IP1-d2 addition by HTRF assay; format: functional, cell-based
Vasopressin V1a receptor [4] = target: T2, Vasopressin V1a receptor; assay: Agonist activity at human vasopressin 1a receptor expressed in HEK293 cells assessed as increase in IP1 accumulation preincubated for 1 hr followed by addition of Ab-Cryptate and IP1-d2 by HTRF assay; format: functional, cell-based
Vasopressin V1a receptor [5] = target: T2, Vasopressin V1a receptor; assay: Antagonist activity at human vasopressin 1a receptor expressed in HEK293 cells assessed as inhibition of vasopressin induced IP1 accumulation pretreated for 30 mins measured 1 hr post Ab-Cryptate and IP1-d2 addition by HTRF assay; format: functional, cell-based
Oxytocin receptor [6] = target: T1, Oxytocin receptor; assay: Displacement of [3H]-oxytocin from human oxytocin receptor expressed in HEK293 cells after 90 mins by microbeta 2 microplate reader analysis; format: cell-based

| SMILES | EC50 (Oxytocin receptor [1]) [µM] | Ki (Vasopressin V1a receptor [2]) [µM] | IC50 (Oxytocin receptor [3]) [µM] | EC50 (Vasopressin V1a receptor [4]) [µM] | IC50 (Vasopressin V1a receptor [5]) [µM] | Ki (Oxytocin receptor [6]) [µM] |
| --- | --- | --- | --- | --- | --- | --- |
| COc1cc(CN2CCN(CCCCCCCC(=O)N3Cc4cnn(C)c4Nc4ccccc43)CC2)cc(OC)c1 | > 10 | 0.248 | > 10 | > 10 | 7.67 | > 10 |
| Cn1ncc2c1Nc1ccccc1N(C(=O)CCCCN1CCN(Cc3cc(O)cc(O)c3)CC1)C2 | > 10 | 0.466 | > 10 | > 10 | > 10 | > 10 |
| Cn1ncc2c1Nc1ccccc1N(C(=O)CCCCCN1CCN(Cc3cc(O)cc(O)c3)CC1)C2 | > 10 | 0.449 | > 10 | > 10 | > 10 | > 10 |
| Cn1ncc2c1Nc1ccccc1N(C(=O)CCCCCCCN1CCN(Cc3cc(O)cc(O)c3)CC1)C2 | > 10 | 0.064 | > 10 | > 10 | 4.67 | 8.35 |
| Cn1ncc2c1Nc1ccccc1N(C(=O)CCCCCCN1CCN(Cc3cc(O)cc(O)c3)CC1)C2 | > 10 | 0.13 | > 10 | > 10 | > 10 | > 10 |
| COc1cc(CN2CCN(CCCCCC(=O)N3Cc4cnn(C)c4Nc4ccccc43)CC2)cc(OC)c1 | > 10 | 0.266 | > 10 | > 10 | 8.2 | 7.45 |
| COc1cc(CN2CCN(CCCCC(=O)N3Cc4cnn(C)c4Nc4ccccc43)CC2)cc(OC)c1 | > 10 | 0.409 | > 10 | > 10 | > 10 | > 10 |
| COc1cc(CN2CCN(C(=O)NCc3ccc(C(=O)N4Cc5cnn(C)c5Nc5ccccc54)cc3C)CC2)cc(OC)c1 | > 10 | 0.062 | 4.13 | > 10 | 1.11 | 0.801 |
| COc1cc(CN2CCN(CCCCCCC(=O)N3Cc4cnn(C)c4Nc4ccccc43)CC2)cc(OC)c1 | > 10 | 0.195 | > 10 | > 10 | > 10 | > 10 |
